From patent US20260083865A1, “PROSTATE SPECIFIC MEMBRANE ANTIGEN (PSMA) LIGANDS AND USE THEREOF” (priority 2022, published 2026)
Like-named read-outs stand apart in the source and are kept apart here. Numbered stars: 1 amine (or outer) side, 2 acyl side, 3 side chain; on linkers, the order of the positions; unused ones are H or OH. Bridge positions count the residues as written; N and C are the ends. Square brackets hold non-standard residues; d marks the D form. Side chains are listed from the residue outwards. Peptide text beside a SMILES is read from it. * marks the point of attachment. TtdsdLys(DOTA)NH2 = NC(=O)[C@@H](CCCCNC(=O)CN1CCN(CC(=O)O)CCN(CC(=O)O)CCN(CC(=O)O)CC1)NC(=O)CCC(=O)NCCCOCCOCCOCCCN*; DOTA = O=C(O)CN1CCN(CC(=O)O)CCN(CC(=O)*)CCN(CC(=O)O)CC1; Phe(4-Cl) = N[C@@H](Cc1ccc(Cl)cc1)C(=O)O; NMeT = CN[C@H](C(=O)O)[C@@H](C)O; X1 = O=C(CC1CCN([*:1])CC1)[*:2]; Tle = CC(C)(C)[C@H](N)C(=O)O; 4Amb = NCc1ccc(C(=O)O)cc1; Hexanoyl = CCCCCC(=O)*; Aib = CC(C)(N)C(=O)O; CO = O=C([*:1])[*:2]

Columns and labels:
[1] = molecular target: T1, Fc-fusion protein of human PSMA (hPSMA-Fc) (Homo sapiens, UniProt Q04609); experiment: Surface plasmon resonance assay (Biacore T200, single cycle kinetic); type: binding; settings: read-out: pKD CAT (converted)
T1 construct: purchased Acro Biosystems PSA-H5264
T1 sequence (Q04609 44-750 limits assumed): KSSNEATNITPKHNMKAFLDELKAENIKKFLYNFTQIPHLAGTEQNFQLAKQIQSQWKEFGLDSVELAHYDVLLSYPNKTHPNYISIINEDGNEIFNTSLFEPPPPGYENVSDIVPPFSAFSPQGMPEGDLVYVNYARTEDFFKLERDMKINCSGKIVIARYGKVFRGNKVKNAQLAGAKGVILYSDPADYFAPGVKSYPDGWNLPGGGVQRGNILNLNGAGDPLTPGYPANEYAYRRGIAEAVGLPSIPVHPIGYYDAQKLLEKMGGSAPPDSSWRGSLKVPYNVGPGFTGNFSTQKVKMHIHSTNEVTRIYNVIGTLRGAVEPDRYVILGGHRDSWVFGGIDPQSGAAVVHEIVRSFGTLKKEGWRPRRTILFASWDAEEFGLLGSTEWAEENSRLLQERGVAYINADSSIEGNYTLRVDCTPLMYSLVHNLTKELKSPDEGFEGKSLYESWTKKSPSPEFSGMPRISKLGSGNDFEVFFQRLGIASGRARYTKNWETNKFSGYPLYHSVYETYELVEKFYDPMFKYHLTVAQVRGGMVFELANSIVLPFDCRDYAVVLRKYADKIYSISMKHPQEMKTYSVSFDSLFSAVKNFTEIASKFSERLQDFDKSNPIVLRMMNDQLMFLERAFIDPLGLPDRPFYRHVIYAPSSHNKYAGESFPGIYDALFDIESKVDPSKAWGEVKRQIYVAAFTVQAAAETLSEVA
Method in brief: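 KD, expressed as pKD, came from 1:1 Langmuir fits of reference- and buffer-blank-subtracted SPR data. The runs were single-cycle kinetics at 25° C in HBST/0.1% DMSO over human PSMA-Fc, captured to ~1000 RU on a peptide-coated CM5 surface and regenerated with 10 mM glycine pH 1.5.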

[2] = molecular target: T2, PSMA-expressing C4-2 cells (Homo sapiens, UniProt Q04609); experiment: FACS binding assay (competition with 50 nM PSM-0183); settings: read-out: pIC50 [C4-2] CAT (converted)
T2 construct: PSMA-expressing C4-2 cells (ATCC, Cat. No. CRL-3314) were cultured in RPMI-1640; host or cells: C4-2 cells
T2 sequence (Q04609 whole entry): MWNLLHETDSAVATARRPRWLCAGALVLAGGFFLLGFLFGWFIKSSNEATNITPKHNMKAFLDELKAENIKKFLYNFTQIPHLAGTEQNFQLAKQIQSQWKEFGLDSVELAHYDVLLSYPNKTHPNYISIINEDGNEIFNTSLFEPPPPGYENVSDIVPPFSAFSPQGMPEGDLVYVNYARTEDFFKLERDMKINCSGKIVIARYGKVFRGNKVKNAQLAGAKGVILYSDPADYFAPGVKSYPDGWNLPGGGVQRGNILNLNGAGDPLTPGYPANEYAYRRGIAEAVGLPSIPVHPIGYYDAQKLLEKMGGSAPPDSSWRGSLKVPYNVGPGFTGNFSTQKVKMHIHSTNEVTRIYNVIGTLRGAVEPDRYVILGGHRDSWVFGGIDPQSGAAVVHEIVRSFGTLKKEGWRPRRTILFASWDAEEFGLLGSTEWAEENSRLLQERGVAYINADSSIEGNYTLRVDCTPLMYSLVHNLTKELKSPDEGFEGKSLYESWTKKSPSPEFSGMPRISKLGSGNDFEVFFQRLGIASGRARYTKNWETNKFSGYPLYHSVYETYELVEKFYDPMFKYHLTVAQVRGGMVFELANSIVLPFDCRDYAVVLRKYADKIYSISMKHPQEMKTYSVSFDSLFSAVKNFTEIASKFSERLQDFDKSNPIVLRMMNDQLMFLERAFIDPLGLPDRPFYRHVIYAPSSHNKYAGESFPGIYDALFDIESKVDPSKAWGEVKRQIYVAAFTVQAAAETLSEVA
Method in brief: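 Competition format: fluorescent tracer PSM-0183 (50 nM) displaced from PSMA on C4-2 cells by a test compound titration over 1 h at 4 °C. Bound tracer was quantified as flow-cytometric AF488 median fluorescence after washing. Four-parameter logistic fits of MFI data gave IC50 and pIC50.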

PC3-PIP tumor model = test system: PC3-PIP tumor model; set-up: species or system mice; settings: mouse, in vivo
From the text: Radioactively labeled compounds can be detected by imaging methods such as SPECT and PET. Furthermore, the data acquired by such techniques can be confirmed by direct measurement of radioactivity contained in the individual organs prepared from an animal injected with a radioactively labeled compound of the disclosure. Thus, the biodistribution (the measurement of radioactivity in individual organs) of a radioactively labeled compound can be determined and analyzed. […] All animal experiments were conducted in compliance with the German animal protection laws. Male swiss or NMRI nude mice (6-8 weeks old, Janvier Labs, France) were inoculated with 5×10^6 PC3-PIP cells in the right shoulder. For selected compounds an additional model was used, here male NMRI nude mice (6-8 weeks old, Janvier Labs, France) were inoculated with 5×10^6 or/1×10^7 C4-2 cells in the right shoulder. When tumors reached an appropriate size, the mice received ˜30 MBq ^111In-labeled compounds of the disclosure (diluted to 100 μL with PBS) administered intravenously via the tail vein. Images were obtained on a NanoSPECT/computed tomography system (Mediso Medical Imaging Systems, Budapest, Hungary) using exemplarily the following acquisition and reconstruction parameters (Table 10). [table] Imaging data were saved as DICOM files and analysed using VivoQuant™ software (Invicro, Boston, USA). In brief, regions of interest (ROIs) were drawn based on computed tomography images for the relevant organs and tissue regions such as heart (estimate of blood pool, bps), kidney, and tumor. The resulting numeric data expressed as a percentage of injected dose per gram of tissue (% ID/g) are presented in FIGS. 3(a)-3(ii) for the PC3-PIP model and FIGS. 4(a)-4(r) for the C4-2 model. Bars show mean % ID/g values of two to three animals per time point. Error bars indicate the value range (minimum and maximum values).

[3] = pKD category for PSMA SPR activity assay, hPSMA-Fc, 25° C.
[4] = pIC50 category of FACS binding, C4-2 cells

| Kd ([1]; PSMA SPR assay, hPSMA-Fc, 25° C., pKD category) [nM] | IC50 ([2]; FACS binding, PSMA-expressing C4-2 cells, pIC50 category) [nM] | AUC ratio [T/K] (PC3-PIP tumor model) | Tumor AUC (PC3-PIP tumor model) [% ID/g*h] | Kd [1, 3] [nM] | IC50 [2, 4] [nM] | Kd ([1]; PSMA SPR assay, category) [nM] | IC50 ([2]; FACS binding, C4-2 cells, category) [nM] | SMILES |
| --- | --- | --- | --- | --- | --- | --- | --- | --- |
| – | – | 1.2 | 170 | < 12.6 | < 200 | – | – | CC(=O)N[C@H](C(=O)NC(C)(C)C(=O)N[C@@H](Cc1ccccc1)C(=O)N[C@H]1CSSC[C@@H](C(=O)N[C@H](C(=O)N[C@H](C(=O)N2CCC(CC(=O)N[C@H](CCCCNC(=O)CN3CCN(CC(=O)O)CCN(CC(=O)O)CCN(CC(=O)O)CC3)C(N)=O)CC2)[C@@H](C)O)C(C)(C)C)NC(=O)[C@H](CC(N)=O)NC(=O)C(C)(C)NC(=O)[C@H](CCCNC(=N)N)NC(=O)[C@H](CCCCN)NC1=O)[C@@H](C)O [PSM-0428, Ac-Thr-Aib-Phe-[Cys-Lys-Arg-Aib-Asn-Cys]-Tle-Thr-Cmp-lys(DOTA)-NH2] (Ac-T[Aib]FCKR[Aib]NC[Tle]T[X1][dK](DOTA)-NH2; disulfide 4-9) |
| – | – | 0.6 | 110 | – | – | < 12.6 | < 200 | CCNC(=O)NC(=N)NCCC[C@@H]1NC(=O)[C@H](CCCCN)NC(=O)[C@@H](NC(=O)[C@H](Cc2ccc(Cl)cc2)NC(=O)C(C)(C)NC(=O)[C@@H](NC(=O)CC2CCN(C(=O)CN3CCN(CC(=O)O)CCN(CC(=O)O)CCN(CC(=O)O)CC3)CC2)[C@@H](C)O)CSSC[C@@H](C(=O)N[C@H](C(=O)N[C@H](C(N)=O)[C@@H](C)O)C(C)(C)C)NC(=O)[C@H](CC(N)=O)NC(=O)C(C)(C)NC1=O [PSM-0579, DOTA-Cmp-Thr-Aib-Pcf-[Cys-Lys-Arg(EtCAyl)-Aib-Asn-Cys]-Tle-Thr-NH2] ({DOTA}-[X1]T[Aib][Phe(4-Cl)]CKR([CO-NHEt])[Aib]NC[Tle]T-NH2; disulfide 5-10) |

Continued, compound first:

| SMILES | Kd ([1]; PSMA SPR assay, hPSMA-Fc, 25° C., pKD category) [nM] | IC50 ([2]; FACS binding, PSMA-expressing C4-2 cells, pIC50 category) [nM] | AUC ratio [T/K] (PC3-PIP tumor model) | Tumor AUC (PC3-PIP tumor model) [% ID/g*h] | Kd [1, 3] [nM] | IC50 [2, 4] [nM] | Kd ([1]; PSMA SPR assay, category) [nM] | IC50 ([2]; FACS binding, C4-2 cells, category) [nM] |
| --- | --- | --- | --- | --- | --- | --- | --- | --- |
| C[C@@H](O)[C@H](NC(=O)[C@@H](NC(=O)[C@@H]1CSSC[C@H](NC(=O)[C@H](Cc2ccc(Cl)cc2)NC(=O)C(C)(C)NC(=O)c2ccc(CNC(=O)CN3CCN(CC(=O)O)CCN(CC(=O)O)CCN(CC(=O)O)CC3)cc2)C(=O)N[C@@H](CCCCN)C(=O)N[C@@H](CCCNC(=N)N)C(=O)NC(C)(C)C(=O)N[C@@H](CC(N)=O)C(=O)N1)C(C)(C)C)C(N)=O [PSM-0283, DOTA-Pamb-Aib-Pcf-[Cys-Lys-Arg-Aib-Asn-Cys]-Tle-Thr-NH2] ({DOTA-4Amb}-[Aib][Phe(4-Cl)]CKR[Aib]NC[Tle]T-NH2; disulfide 3-8) | < 12.6 | < 200 | 1.6 | 200 | – | – | – | – |
| CC(C)[C@H](NC(=O)[C@@H]1CSSC[C@H](NC(=O)[C@H](Cc2ccc(Cl)cc2)NC(=O)C(C)(C)NC(=O)[C@@H](NC(=O)CC2CCN(C(=O)CN3CCN(CC(=O)O)CCN(CC(=O)O)CCN(CC(=O)O)CC3)CC2)[C@@H](C)O)C(=O)N[C@@H](CCCCN)C(=O)N[C@@H](CCCNC(=N)N)C(=O)NC(C)(C)C(=O)N[C@@H](CC(N)=O)C(=O)N1)C(=O)N(C)[C@H](C(N)=O)[C@@H](C)O [PSM-0377, DOTA-Cmp-Thr-Aib-Pcf-[Cys-Lys-Arg-Aib-Asn-Cys]-Val-Nmt-NH2] ({DOTA}-[X1]T[Aib][Phe(4-Cl)]CKR[Aib]NCV[NMeT]-NH2; disulfide 5-10) | – | – | 1.1 | 160 | < 12.6 | < 200 | – | – |
| CCCCCC(=O)N[C@H](C(=O)NC(C)(C)C(=O)N[C@@H](Cc1ccccc1)C(=O)N[C@H]1CSSC[C@@H](C(=O)N[C@H](C(=O)N[C@H](C(=O)N[C@@H](CC(=O)O)C(=O)NCCCOCCOCCOCCCNC(=O)CCC(=O)N[C@H](CCCCNC(=O)CN2CCN(CC(=O)O)CCN(CC(=O)O)CCN(CC(=O)O)CC2)C(N)=O)[C@@H](C)O)C(C)(C)C)NC(=O)[C@H](CC(N)=O)NC(=O)C(C)(C)NC(=O)[C@H](CCCNC(=N)N)NC(=O)[C@H](CCCCN)NC1=O)[C@@H](C)O [PSM-0425, Hex-Thr-Aib-Phe-[Cys-Lys-Arg-Aib-Asn-Cys]-Tle-Thr-Asp-Ttds-lys(DOTA)-NH2] (Hexanoyl-T[Aib]FCKR[Aib]NC[Tle]TD-{TtdsdLys(DOTA)NH2}; disulfide 4-9) | – | – | 0.53 | 230 | < 12.6 | < 200 | – | – |
